Measured values: PubChem BioAssay (NCI)
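GI50 marks 50% less growth. TGI: total growth inhibition.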

Experiments:
Assay in all cases: inhibition of tumour cell growth, NCI panel, 384-well format
[1] = tested on: OVCAR-5 ovarian
[2] = tested on: CAKI-1 renal
[3] = tested on: HOP-92 NSCLC
[4] = tested on: UACC-257 melanoma
[5] = tested on: HL-60(TB) leukemia
[6] = tested on: A549 NSCLC
[7] = tested on: CCRF-CEM leukemia
[8] = tested on: ACHN renal
[9] = tested on: PC-3 prostate
[10] = tested on: IGROV1 ovarian
[11] = tested on: KM12 colon
[12] = tested on: COLO 205 colon
[13] = tested on: BT-549 breast
[14] = tested on: SNB-75 CNS
[15] = tested on: RXF 393 renal
[16] = tested on: SK-MEL-2 melanoma
[17] = tested on: M14 melanoma
[18] = tested on: NCI-H460 NSCLC
[19] = tested on: HS 578T breast
[20] = tested on: OVCAR-4 ovarian
[21] = tested on: OVCAR-8 ovarian
[22] = tested on: U251 glioblastoma
[23] = tested on: NCI-H226 lung
[24] = tested on: TK-10 renal
[25] = tested on: MALME-3M melanoma
[26] = tested on: SK-OV-3 ovarian
[27] = tested on: EKVX NSCLC
[28] = tested on: SF-268 CNS
[29] = tested on: MDA-MB-435 melanoma
[30] = tested on: NCI-H322M lung
[31] = tested on: SF-539 CNS
[32] = tested on: NCI-H522 lung
[33] = tested on: DU-145 prostate
[34] = tested on: OVCAR-3 ovarian
[35] = tested on: SK-MEL-28 melanoma
[36] = tested on: HCT-15 colon
[37] = tested on: MCF7 breast
[38] = tested on: SW-620 colon
[39] = tested on: A498 renal
[40] = tested on: SF-295 CNS
[41] = tested on: HOP-62 NSCLC
[42] = tested on: SR leukemia
[43] = tested on: NCI/ADR-RES ovarian
[44] = tested on: MDA-MB-468 breast
[45] = tested on: NCI-H23 lung
[46] = tested on: HT29 colon
[47] = tested on: UACC-62 melanoma
[48] = tested on: SNB-19 CNS
[49] = tested on: 786-0 renal
[50] = tested on: RPMI-8226 leukemia
[51] = tested on: MDA-MB-231 breast
[52] = tested on: MOLT-4 leukemia
[53] = tested on: SK-MEL-5 melanoma
[54] = tested on: HCC-2998 colon
[55] = tested on: T-47D breast
[56] = tested on: SN12C renal

O=c1cc(N2CCOCC2)oc2c(-c3ccccc3)cccc12
GI50 [1]: 4.02 µM
TGI [1]: 39.1 µM
GI50 [2]: 1.89 µM
TGI [2]: 9.03 µM
GI50 [3]: 4.79 µM
TGI [3]: 43.2 µM
GI50 [4]: 16.9 µM
TGI [4]: 51.3 µM
GI50 [5]: 2.6 µM
TGI [5]: 12.6 µM
GI50 [6]: 5.87 µM
TGI [6]: 27.9 µM
GI50 [7]: 4.08 µM
TGI [7]: 16.1 µM
GI50 [8]: 7.85 µM
TGI [8]: 26.8 µM
GI50 [9]: 3.18 µM
TGI [9]: 18.3 µM
GI50 [10]: 2.54 µM
TGI [10]: 7.63 µM
GI50 [11]: 14 µM
TGI [11]: 81.7 µM
GI50 [12]: 10.1 µM
TGI [12]: 22.6 µM
GI50 [13]: 2.61 µM
TGI [13]: 14.4 µM
GI50 [14]: 1.27 µM
TGI [14]: 12.2 µM
GI50 [15]: 2.94 µM
TGI [15]: 16.6 µM
GI50 [16]: 20.1 µM
TGI [16]: 38.9 µM
GI50 [17]: 4.81 µM
TGI [17]: 29 µM
GI50 [18]: 5.91 µM
TGI [18]: 66.3 µM
GI50 [19]: 2.78 µM
TGI [19]: 9.32 µM
GI50 [20]: 1.76 µM
TGI [20]: 9.3 µM
GI50 [21]: 4.9 µM
TGI [21]: 32.1 µM
GI50 [22]: 16.4 µM
TGI [22]: 58.7 µM
GI50 [23]: 3.45 µM
TGI [23]: 10.9 µM
GI50 [24]: 2.79 µM
TGI [24]: 15.4 µM
GI50 [25]: 2.12 µM
TGI [25]: 8.78 µM
GI50 [26]: 3.64 µM
TGI [26]: 19.7 µM
GI50 [27]: 4.43 µM
TGI [27]: 26.7 µM
GI50 [28]: 5.91 µM
TGI [28]: 28.1 µM
GI50 [29]: 10.3 µM
TGI [29]: 32.1 µM
GI50 [30]: 12.7 µM
TGI [30]: 73.2 µM
GI50 [31]: 10.1 µM
TGI [31]: 37 µM
GI50 [32]: 2.44 µM
TGI [32]: 10.9 µM
GI50 [33]: 8.8 µM
TGI [33]: 55.5 µM
GI50 [34]: 6.36 µM
TGI [34]: 27.9 µM
GI50 [35]: 5.44 µM
TGI [35]: 30.7 µM
GI50 [36]: 6.35 µM
TGI [36]: 90.2 µM
GI50 [37]: 3 µM
TGI [37]: 25.6 µM
GI50 [38]: 18.9 µM
TGI [38]: > 100 µM
GI50 [39]: 1.86 µM
TGI [39]: 8.98 µM
GI50 [40]: 17.8 µM
TGI [40]: > 100 µM
GI50 [41]: 5.17 µM
TGI [41]: 32.8 µM
GI50 [42]: 2.2 µM
TGI [42]: 5.98 µM
GI50 [43]: 5.08 µM
TGI [43]: 21.8 µM
GI50 [44]: 2.24 µM
TGI [44]: 7.78 µM
GI50 [45]: 8.85 µM
TGI [45]: 32.4 µM
GI50 [46]: 6.69 µM
TGI [46]: 28.7 µM
GI50 [47]: 8.87 µM
TGI [47]: 23.3 µM
GI50 [48]: 23.7 µM
TGI [48]: > 100 µM
GI50 [49]: 7.17 µM
TGI [49]: 93.5 µM
GI50 [50]: 2.46 µM
TGI [50]: 8.77 µM
GI50 [51]: 4.13 µM
TGI [51]: 45.8 µM
GI50 [52]: 3.86 µM
TGI [52]: 15.2 µM
GI50 [53]: 10.8 µM
TGI [53]: 23.5 µM
GI50 [54]: 12.3 µM
TGI [54]: 33 µM
GI50 [55]: 3.6 µM
TGI [55]: 23.4 µM
GI50 [56]: 8.03 µM
TGI [56]: 97.5 µM
